For series [1], the target named is T1, human liver GK (GST-hLGK1) (Homo sapiens, UniProt P35557).
T1 construct: with a BamHI site added to immediately before the initiation codon; made in house; host or cells: Escherichia coli BL21 (Stratagene), plasmid pGEX6P-2/hLGK1
T1 sequence (P35557 1-464 isoform P35557-3): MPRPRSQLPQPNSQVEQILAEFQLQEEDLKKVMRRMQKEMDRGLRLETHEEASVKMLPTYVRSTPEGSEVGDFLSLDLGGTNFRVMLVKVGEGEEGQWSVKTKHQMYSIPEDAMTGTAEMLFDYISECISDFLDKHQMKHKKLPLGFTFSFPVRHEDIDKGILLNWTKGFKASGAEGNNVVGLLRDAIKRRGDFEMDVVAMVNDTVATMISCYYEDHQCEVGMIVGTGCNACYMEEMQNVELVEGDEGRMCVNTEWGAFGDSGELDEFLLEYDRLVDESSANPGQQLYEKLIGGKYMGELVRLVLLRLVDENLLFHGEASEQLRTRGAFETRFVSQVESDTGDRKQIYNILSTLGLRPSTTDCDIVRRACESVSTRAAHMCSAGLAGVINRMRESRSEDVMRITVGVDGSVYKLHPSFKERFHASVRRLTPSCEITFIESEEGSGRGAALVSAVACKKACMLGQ
The series can be described thus: Determination of GK activity value (Mant-ATP to Mant-ADP conversion, capillary electrophoresis). The settings on record: reaction started with 25 mM D-glucose solution, 37° C., 60 min, concentration at midpoint between maximum activity value and control group activity value. In kind it is biochemical. As for the experimental part: Plasmid DNA to be used for the expression of a protein (GST-hLGK1) containing GST (Glutathione S-transferase) added to the amino terminal of human liver GK in Escherichia coli was prepared as follows.
First, PCR was performed using human liver cDNA (Marathon Ready cDNA, Clontech Laboratories, Inc.) as a template and two kinds of synthetic DNAs (5′-[…]-3′ (SEQ ID NO: 1) and 5′-[…]-3′ (SEQ ID NO: 2)), and the obtained DNA fragment was closed using a TOPO TA Cloning Kit (Invitrogen Corporation). PCR was performed using the obtained plasmid DNA as a template and a synthetic DNA (5′-[…] CAGAG-3′ (SEQ ID NO: 3)) with a BamHI site added to immediately before the initiation codon, and a synthetic DNA (5′-[…]-3′ (SEQ ID NO: 4)) with an EcoRI site added to immediately after the stop codon. The obtained DNA fragment was subcloned to pGEX6P-2 (Amersham Biosciences K.K.) cleaved with BamHI and EcoRI to give a plasmid (pGEX6P-2/hLGK1) for expression of human liver GK.
BL21 strain (Stratagene) transformed with pGEX6P-2/hLGK1 obtained in (1) was cultured with shaking at 37° C. for 14 hr in a 200 ml Erlenmeyer flask containing 50 ml of 100 μg/ml ampicillin-containing LB medium. The culture medium (25 ml) was diluted with 225 ml of 100 μg/ml ampicillin-containing LB medium, and further cultured with shaking at 37° C. for 1 hr in a 1 L Erlenmeyer flask. After culture, the Erlenmeyer flask was cooled on ice, 125 μL of 100 mM isopropyl-thio-β-D-galactopyranoside (IPTG) was added (final concentration 50 μM), and cultured at 17° C. for 20 hr. The culture medium was centrifuged, and the obtained fungus was disrupted by ultrasonication. The object protein (GST-hLGK1) was purified from the supernatant using Glutathione Sepharose 4B (Amersham Biosciences K.K.).
A solution (5 μL) of test compound in 50% dimethyl sulfoxide was added to each well of 384 well black plate (Nalge Nunc International K.K.). Then, a solution (35 μL) obtained by diluting GST-hLGK1 obtained in (2) with measurement buffer (containing 50 mM HEPES (pH 7.4), 200 mM KCl, 5 mM MgCl2, 2.5 mM DTT and 50 μM 2′-(or-3′)-O—(N-methylanthraniloyl)adenosine 5′-triphosphate (Mant-ATP) (Jena Bioscience GmbH)) to 6 μg/mL was added to each well.
Each well was stood at 37° C. for 10 min, and 25 mM D-glucose solution (10 μL) was added to start the reaction.
Each well after the reaction was stood at 37° C. for 60 min, and the reaction was quenched by adding 25 μL of a quenching solution (containing 200 mM HEPES (pH 7.4), 20 mM MgCl2, 200 mM EDTA, 0.03% Triton-X 100, 0.3% Coating 3 reagent (Caliper Life Sciences, Inc.)).
2′-(or -3′)-O—(N-methylanthraniloyl)adenosine 5′-triphosphate (Mant-ATP, substrate) and Mant-ADP (reaction resultant product) were separated from each well after the reaction by a microchip type capillary electrophoresis apparatus 250 HTS (Caliper Life Sciences, Inc.). The reaction rate [(reaction resultant product peak height)/(reaction resultant product peak height+substrate peak height)×100(%)] was calculated from the ratio of the substrate peak height and reaction resultant product peak height obtained by fluorescence detection (excitation wavelength 355 nm, measurement wavelength 460 nm) and used as the index of GK activity.
3.5 As a control group, the reaction rate was calculated in the same manner as above except that “solution in 50% dimethyl sulfoxide (without test compound)” was used instead of “solution of test compound in 50% dimethyl sulfoxide”.
A concentration dependency curve of the test compound was drawn with the percentage obtained by dividing the reaction rate of the well added with the test compound (test compound addition group) by the reaction rate of the control group was taken as the GK activity value of the test compound, and the concentration of the test compound at the midpoint between the maximum activity value of the test compound addition group and the control group activity value is shown as EC50 value.

Usually melting point stands for the temperature of the solid-liquid transition. As a reminder, the EC50 is the midpoint of the concentration-response curve. Read a high EC50 as lower potency in that assay. The molecule `CC(C)(O)CC1CN=C(c2cc3cc(Oc4ccc(S(C)(=O)=O)cn4)cc(OC4CCOCC4)c3[nH]2)S1` (stereo not drawn) [Example 14, 2-Methyl-1-{2-[5-{[5-(methylsulfonyl)pyridin-2-yl]oxy}-7-(tetrahydro-2H-pyran-4-yloxy)-1H-indol-2-yl]-4,5-dihydro-1,3-thiazol-5-yl}propan-2-ol] gave a melting point of 129 to 130 °C. In series [1], this molecule showed an EC50 of 61 nM. In the case of `CS(=O)(=O)Cc1ccc(Oc2cc(OC3CCOCC3)c3[nH]c(C4=NCC(CCO)S4)cc3c2)cn1` (stereo not drawn) [Example 24, 2-{2-[5-({6-[(Methylsulfonyl)methyl]pyridin-3-yl}oxy)-7-(tetrahydro-2H-pyran-4-yloxy)-1H-indol-2-yl]-4,5-dihydro-1,3-thiazol-5-yl}ethanol], the EC50 in series [1] was determined as 19 nM.

For `CNC(=O)CC1CN=C(c2cc3cc(Oc4ccc(S(C)(=O)=O)nc4)cc(C)c3[nH]2)S1` (stereo not drawn) [Example 73, 2-[2-(7-Methyl-5-{[6-(methylsulfonyl)pyridin-3-yl]oxy}-1H-indol-2-yl)-4,5-dihydro-1,3-thiazol-5-yl]-N-methylacetamide], the melting point lay in the range of 183 to 184 °C. The molecule further had an EC50 in series [1] of 33 nM. The like results for `Cc1cc(Oc2ccc(S(C)(=O)=O)nc2)cc2cc(C3=NCC(CC(N)=O)S3)[nH]c12` (stereo not drawn) [Example 72, 2-[2-(7-Methyl-5-{[6-(methylsulfonyl)pyridin-3-yl]oxy}-1H-indol-2-yl)-4,5-dihydro-1,3-thiazol-5-yl]acetamide] were, in that order, 202 to 203 °C and 29 nM. The matching figures for `CN(C)C(=O)CC1CN=C(c2cc3cc(Oc4ccc(S(C)(=O)=O)nc4)ccc3[nH]2)S1` (stereo not drawn) [Example 55, N,N-Dimethyl-2-[2-(5-{[6-(methylsulfonyl)pyridin-3-yl]oxy}-1H-indol-2-yl)-4,5-dihydro-1,3-thiazol-5-yl]acetamide]: 162 to 164 °C and 180 nM. The like results for `CS(=O)(=O)c1ccc(Oc2cc(OC3CCOCC3)c3[nH]c(C4=NCC(CCO)S4)cc3c2)cc1` (stereo not drawn) [Example 2, 2-(2-{5-[4-(Methylsulfonyl)phenoxy]-7-(tetrahydro-2H-pyran-4-yloxy)-1H-indol-2-yl}-4,5-dihydro-1,3-thiazol-5-yl)ethanol] were, in that order, 116 to 117 °C and 18 nM. Molecule `CS(=O)(=O)c1ccc(Oc2cc(OC3CCOCC3)c3[nH]c(C4=NCC(CC(N)=O)S4)cc3c2)cn1` (single isomer, unassigned) [Example 32, 2-{2-[5-{[6-(Methylsulfonyl)pyridin-3-yl]oxy}-7-(tetrahydro-2H-pyran-4-yloxy)-1H-indol-2-yl]-4,5-dihydro-1,3-thiazol-5-yl}acetamide] registered an EC50 in series [1] of 16 nM. Take `COCc1ccc(Oc2cc(OC3CCOCC3)c3[nH]c(C4=NCC(CC(C)(C)O)S4)cc3c2)cn1` (stereo not drawn) [Example 8, 1-{2-[5-{[6-(Methoxymethyl)pyridin-3-yl]oxy}-7-(tetrahydro-2H-pyran-4-yloxy)-1H-indol-2-yl]-4,5-dihydro-1,3-thiazol-5-yl}-2-methylpropan-2-ol]: the melting point lay in the range of 108 to 110 °C. This molecule also came in with an EC50 in series [1] of 18 nM. `COCCOCc1ccc(Oc2cc(OC3CCOCC3)c3[nH]c(C4=NCC(CCO)S4)cc3c2)cn1` (stereo not drawn) [Example 20, 2-{2-[5-({6-[(2-Methoxyethoxy)methyl]pyridin-3-yl}oxy)-7-(tetrahydro-2H-pyran-4-yloxy)-1H-indol-2-yl]-4,5-dihydro-1,3-thiazol-5-yl}ethanol] registered an EC50 in series [1] of 27 nM.

For the molecule `CCNC(=O)CC1CN=C(c2cc3cc(Oc4ccc(S(C)(=O)=O)nc4)ccc3[nH]2)S1` (stereo not drawn) [Example 54, N-Ethyl-2-[2-(5-{[6-(methylsulfonyl)pyridin-3-yl]oxy}-1H-indol-2-yl)-4,5-dihydro-1,3-thiazol-5-yl]acetamide], the melting point was in the range of 216 to 217 °C. This molecule came in with an EC50 in series [1] of 120 nM. As to `CN(C)C(=O)CC1CN=C(c2cc3cc(Oc4ccc(S(C)(=O)=O)nc4)ccc3[nH]2)S1` (single isomer, unassigned) [Example 65, N,N-Dimethyl-2-[2-(5-{[6-(methylsulfonyl)pyridin-3-yl]oxy}-1H-indol-2-yl)-4,5-dihydro-1,3-thiazol-5-yl]acetamide], it took 66 nM to reach a half-maximal effect in series [1] (EC50). Still for that read-out and setting: the figure for `CNC(=O)CC1CN=C(c2cc3cc(Oc4ccc(S(C)(=O)=O)nc4)cc(OC4CCOCC4)c3[nH]2)S1` (single isomer, unassigned) [Example 35, N-Methyl-2-{2-[5-{[6-(methylsulfonyl)pyridin-3-yl]oxy}-7-(tetrahydro-2H-pyran-4-yloxy)-1H-indol-2-yl]-4,5-dihydro-1,3-thiazol-5-yl}acetamide] is 31 nM.

In turn, `COCCNC(=O)CC1CN=C(c2cc3cc(Oc4ccc(S(C)(=O)=O)nc4)ccc3[nH]2)S1` (single isomer, unassigned) [Example 67, N-(2-Methoxyethyl)-2-[2-(5-{[6-(methylsulfonyl)pyridin-3-yl]oxy}-1H-indol-2-yl)-4,5-dihydro-1,3-thiazol-5-yl]acetamide] showed an EC50 in series [1] of 89 nM. Same read-out and setting: the figure for `COCc1ccc(Oc2cc(OC3CCOCC3)c3[nH]c(C4=NCC(CCO)S4)cc3c2)cn1` (stereo not drawn) [Example 7, 2-{2-[5-{[6-(Methoxymethyl)pyridin-3-yl]oxy}-7-(tetrahydro-2H-pyran-4-yloxy)-1H-indol-2-yl]-4,5-dihydro-1,3-thiazol-5-yl}ethanol] is 14 nM; for `CNC(=O)CC1CN=C(c2cc3cc(Oc4ccc(S(C)(=O)=O)nc4)cc(OC4CCOCC4)c3[nH]2)S1` (single isomer, unassigned) [Example 36, N-Methyl-2-{2-[5-{[6-(methylsulfonyl)pyridin-3-yl]oxy}-7-(tetrahydro-2H-pyran-4-yloxy)-1H-indol-2-yl]-4,5-dihydro-1,3-thiazol-5-yl}acetamide] it is 16 nM; for `CS(=O)(=O)c1ccc(Oc2cc(OC3CCOCC3)c3[nH]c(C4=NCC(CC(N)=O)S4)cc3c2)cn1` (single isomer, unassigned) [Example 33, 2-{2-[5-{[6-(Methylsulfonyl)pyridin-3-yl]oxy}-7-(tetrahydro-2H-pyran-4-yloxy)-1H-indol-2-yl]-4,5-dihydro-1,3-thiazol-5-yl}acetamide] it is 26 nM.

Consider `CCc1cc(Oc2ccc(S(C)(=O)=O)nc2)cc2cc(C3=NCC(CC(=O)O)S3)[nH]c12` (stereo not drawn) [Example 60, [2-(7-Ethyl-5-{[6-(methylsulfonyl)pyridin-3-yl]oxy}-1H-indol-2-yl)-4,5-dihydro-1,3-thiazol-5-yl]acetic acid], for which the melting point is 230 to 232 °C.

For the origin of these results see patent US8557805B2, “Fused ring compound and use thereof” (Takeda Pharmaceutical Company Limited, priority 2008, dated 2013).
